Results as given in patent US10835564B2, “Composition for preventing and treating premature ovarian failure, containing Evodia rutaecarpa bentham extract having protective activity against ovotoxicity” (DONGGUK UNIVERSITY GYEONGJU CAMPUS INDUSTRY-ACADEMY …, priority 2015, dated 2020).
pIC50: −log10 of the molar value.

Test system: CHO-K1 cells
Test: MTT assay, cytotoxicity against CHO-K1 cells
Assay type: cell-based, hamster
Settings: 24 hours, FIG. 4, read-out: concentration at which the viability of CHO-K1 cells became about 50%
Description: The cell viability was analyzed by a 3-(4,5-dimethylthiazol)-2,5-diphenyltetrazolium bromide (MTT) assay method. After CHO-K1 cells at 2×10^4 cells/well were cultured in a 48-well plate and then serum starved for 4 hours, VCD was treated at various concentrations or the respective medicines were pre-treated at 100 μg/ml, VCD (1.5 mM) was sequentially treated, and the cells were cultured under the conditions of 37° C. and 5% CO2 for 24 hours. After 30 μl of an MTT solution (2 mg/ml) per well was added thereto and the resulting mixture was allowed to react in an incubator at 37° C. and 5% CO2 for 3 hours, the MTT solution and the culture solution were completely removed, and then formazan crystallites formed in the cells were dissolved by using 150 μl of dimethyl sulfoxide (DMSO, Sigma-Aldrich, USA), and the absorbance thereof was measured at 595 nm by using an ELISA plate reader (DYNEX, Opsys MR, USA). The cell viability for the control was expressed as a percentage.
The cytotoxicity of VCD against CHO-K1 cells was evaluated by the MTT assay according to Example 1-4, and as a result, the concentration (1.5 mM) at which the viability of CHO-K1 cells by VCD became about 50% was determined (see FIG. 4), and the result was applied to the following experiment. […]

`C1CC2OC2CC1C1CO1` (stereo not shown) [VCD, 4-vinylcyclohexene diepoxide] gave a pIC50 of 2.82.
